Results published in patent publication US20240252488A1 (KOREA RESEARCH INSTITUTE OF CHEMICAL TECHNOLOGY, priority 2020, published 2024).

Columns and labels:
FADD−/− Jurkat cells = assay: Necroptosis inhibition assay, TNF-α-induced necroptosis (CellTiter-Glo 2.0); assay type: cell-based, human; settings: TNF-α 15 ng/mL; for Necroptosis inhibition assay (Rescue %) 1 μM: compound 1 μM; for Necroptosis inhibition assay (Rescue %) 10 μM: compound 10 μM
Summary of the method: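 Necroptosis was triggered by TNF-α at 15 ng/mL final following 30 minutes of compound exposure (0.1, 1 or 10 μM final). Incubation ran 20 to 24 hours at 37° C under 5% CO2; cell ATP was then quantified by luminescence.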

MLKL [1] = biological target: T1, MLKL (Homo sapiens, UniProt Q8NB16); assay: MLKL degradation assay in HepG2 cell line (western blot); assay type: cell-based; design: endogenous in cells; host or cells: HepG2 or HaCaT; settings: cell line not given; for Degradation assay (Degradation %) 1 μM: compound 1 μM; for Degradation assay (Degradation %) 10 μM: compound 10 μM
T1 sequence (Q8NB16 1-471): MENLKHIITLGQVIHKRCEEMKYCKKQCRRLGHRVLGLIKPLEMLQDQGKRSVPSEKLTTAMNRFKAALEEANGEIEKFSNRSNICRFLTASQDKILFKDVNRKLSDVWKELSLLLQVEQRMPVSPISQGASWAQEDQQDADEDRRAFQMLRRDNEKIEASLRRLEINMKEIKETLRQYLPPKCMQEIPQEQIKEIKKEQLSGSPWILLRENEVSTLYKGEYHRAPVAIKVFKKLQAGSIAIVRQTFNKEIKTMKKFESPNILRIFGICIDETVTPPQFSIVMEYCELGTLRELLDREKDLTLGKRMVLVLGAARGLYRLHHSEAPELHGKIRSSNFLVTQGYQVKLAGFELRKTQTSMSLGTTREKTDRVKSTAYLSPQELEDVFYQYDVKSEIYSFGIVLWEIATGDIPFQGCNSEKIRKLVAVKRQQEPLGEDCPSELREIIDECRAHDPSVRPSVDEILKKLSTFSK
Summary of the method: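 After treating HepG2 with test compounds (final 1 μM or 10 μM) for 20-24 h, we lysed cells, equalized protein by BCA and probed MLKL by overnight primary antibody at 4 °C followed by chemiluminescent detection.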

MLKL [2] = biological target: T1, MLKL; assay: Measurement of binding affinity with MLKL receptor (competitive binding assay, Kd); design: made in house; host or cells: HEK 293 cell line (T7 phage in E. coli BL21-derived host is also described)
Summary of the method: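 Kd from an immobilized-ligand competition format: the DNA-tagged kinase from HEK 293 expression is eluted and quantified by qPCR. Compounds added from 111× DMSO stocks, final DMSO 0.9%.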

Compound	Necroptosis inhibition assay (Rescue %) 1 μM (FADD−/− Jurkat cells)	Necroptosis inhibition assay (Rescue %) 10 μM (FADD−/− Jurkat cells)	Degradation assay (Degradation %) 1 μM (MLKL [1])	Degradation assay (Degradation %) 10 μM (MLKL [1])	Kd (MLKL [2])	Necroptosis inhibition assay (Rescue %) 1 μM (FADD−/− Jurkat cells; FADD−/− Jurkat cells)	Necroptosis inhibition assay (Rescue %) 10 μM (FADD−/− Jurkat cells; FADD−/− Jurkat cells)
Nc1ncc(-c2cnn(C3CCN(CCOC4CCN(C(=O)CCc5ccc6c(c5)C(=O)N(C5CCC(=O)NC5=O)C6=O)CC4)CC3)c2)nc1C(=O)O[C@@H](C(=O)Nc1ccc(F)cc1)c1ccccc1 (stereo partly drawn) [TDH-379, (R)-2-((4-fluorophenyl)amino)-2-oxo-1-phenylethyl 3-amino-6-(1-(1-(2-((1-(3-(2-(2,6-dioxopiperidin-3-yl)-1,3-dioxoisoindolin-5-yl)propanoyl)piperidin-4-yl)oxy)ethyl)piperidin-4-yl)-1H-pyrazol-4-yl)pyrazine-2-carboxylate]	36.70%	28.98%	69.78%	88.75%	2.9 nM		
Nc1ncc(-c2cnn(C3CCN(CCCN4CCN(C(=O)COc5ccc6c(c5)C(=O)N(C5CCC(=O)NC5=O)C6=O)CC4)CC3)c2)nc1C(=O)N[C@@H](C(=O)Nc1ccc(F)cc1)c1ccccc1 (stereo partly drawn) [TDH-492, 3-amino-6-(1-(1-(3-(4-(2-((2-(2,6-dioxopiperidin-3-yl)-1,3-dioxoisoindolin-5-yl)oxy)acetyl)piperazin-1-yl)propyl)piperidin-4-yl)-1H-pyrazol-4-yl)-N-((R)-2-((4-fluorophenyl)amino)-2-oxo-1-phenylethyl)pyrazine-2-carboxamide]			13.74%	14.89%	39 nM	10.33%	4.12%
Nc1ncc(-c2cnn(C3CCN(C(=O)COCCOCCNC(=O)COc4cccc5c4C(=O)N(C4CCC(=O)NC4=O)C5=O)CC3)c2)nc1C(=O)O[C@@H](C(=O)Nc1ccc(F)cc1)c1ccccc1 (stereo partly drawn) [TDH-188, (R)-2-((4-fluorophenyl)amino)-2-oxo-1-phenylethyl 3-amino-6-(1-(1-(2-(2-(2-(2-((2-(2,6-dioxopiperidin-3-yl)-1,3-dioxoisoindolin-4-yl)oxy)acetamido)ethoxy)ethoxy)acetyl)piperidin-4-yl)-1H-pyrazol-4-yl)pyrazine-2-carboxylate]	45.68%	42.08%	7.04%	5.3%	3.5 nM		
Nc1ncc(-c2cnn(C3CCN(CCC4CCN(C(=O)c5cccc(C(=O)NC6CCC(=O)NC6=O)c5)CC4)CC3)c2)nc1C(=O)O[C@@H](C(=O)Nc1ccc(F)cc1)c1ccccc1 (stereo partly drawn) [TDH-543, (R)-2-((4-fluorophenyl)amino)-2-oxo-1-phenylethyl 3-amino-6-(1-(1-(2-(1-(3-((2,6-dioxopiperidin-3-yl)carbamoyl)benzoyl)piperidin-4-yl)ethyl)piperidin-4-yl)-1H-pyrazol-4-yl)pyrazine-2-carboxylate]			76.24%	80.46%	0.23 nM	37.86%	26.19%
Nc1ncc(-c2cnn(C3CCN(C[C@H]4CC[C@H](CNC(=O)COc5cccc6c5C(=O)N(C5CCC(=O)NC5=O)C6=O)CC4)CC3)c2)nc1C(=O)O[C@@H](C(=O)Nc1ccc(F)cc1)c1ccccc1 (stereo partly drawn) [TDH-345, (R)-2-((4-fluorophenyl)amino)-2-oxo-1-phenylethyl 3-amino-6-(1-(1-(((1r,4r)-4-((2-((2-(2,6-dioxopiperidin-3-yl)-1,3-dioxoisoindolin-4-yl)oxy)acetamido)methyl)cyclohexyl)methyl)piperidin-4-yl)-1H-pyrazol-4-yl)pyrazine-2-carboxylate]	29.41%	19.45%	87.91%	80.66%	1.5 nM		
Nc1ncc(-c2cnn(C3CCN(CCC4CCN(C(=O)CNc5cccc6c5C(=O)N(C5CCC(=O)NC5=O)C6=O)CC4)CC3)c2)nc1C(=O)O[C@@H](C(=O)Nc1ccc(F)cc1)c1ccccc1 (stereo partly drawn) [TDH-198, (R)-2-((4-fluorophenyl)amino)-2-oxo-1-phenylethyl 3-amino-6-(1-(1-(2-(1-((2-(2,6-dioxopiperidin-3-yl)-1,3-dioxoisoindolin-4-yl)glycyl)piperidin-4-yl)ethyl)piperidin-4-yl)-1H-pyrazol-4-yl)pyrazine-2-carboxylate]	79.13%	31.65%	69.49%	41.71%	1.3 nM		
Nc1ncc(-c2ccc(N3CCN(CCOCCOCCNC(=O)CNc4ccc5c(c4)C(=O)N(C4CCC(=O)NC4=O)C5=O)CC3)nc2)nc1C(=O)OC(C(=O)Nc1ccc(F)cc1)c1ccccc1 (centres unmarked) [TDH-260, 2-((4-fluorophenyl)amino)-2-oxo-1-phenylethyl 3-amino-6-(6-(4-(2-(2-(2-(2-((2-(2,6-dioxopiperidin-3-yl)-1,3-dioxoisoindolin-5-yl)amino)acetamido)ethoxy)ethoxy)ethyl)piperazin-1-yl)pyridin-3-yl)pyrazine-2-carboxylate]	14.46%	13.52%	38.65%	53.35%	18 nM		
Nc1ncc(-c2cnn(C3CCN(C(=O)C4CCN(C(=O)CC5CCN(c6cccc7c6C(=O)N(C6CCC(=O)NC6=O)C7=O)CC5)CC4)CC3)c2)nc1C(=O)O[C@@H](C(=O)Nc1ccc(F)cc1)c1ccccc1 (stereo partly drawn) [TDH-374, (R)-2-((4-fluorophenyl)amino)-2-oxo-1-phenylethyl 3-amino-6-(1-(1-(1-(2-(1-(2-(2,6-dioxopiperidin-3-yl)-1,3-dioxoisoindolin-4-yl)piperidin-4-yl)acetyl)piperidine-4-carbonyl)piperidin-4-yl)-1H-pyrazol-4-yl)pyrazine-2-carboxylate]	39.14%	32.53%	93.73%	91.38%	2.7 nM		
COc1ccc(C(=O)N2CCC(C(=O)N3CCC(CN4CCC(n5cc(-c6cnc(N)c(C(=O)O[C@@H](C(=O)Nc7ccc(F)cc7)c7ccccc7)n6)cn5)CC4)CC3)CC2)cc1N1CCC(=O)NC1=O [TDH-515, (R)-2-((4-fluorophenyl)amino)-2-oxo-1-phenylethyl 3-amino-6-(1-(1-((1-(1-(3-(2,4-dioxotetrahydropyrimidin-1(2H)-yl)-4-methoxybenzoyl)piperidine-4-carbonyl)piperidin-4-yl)methyl)piperidin-4-yl)-1H-pyrazol-4-yl)pyrazine-2-carboxylate]			95.21%	89.06%	1.4 nM	68.04%	15.68%
Nc1ncc(-c2cnn(C3CCN(CCOCCOCCOCCNC(=O)CNc4ccc5nnn(C6CCC(=O)NC6=O)c(=O)c5c4)CC3)c2)nc1C(=O)O[C@@H](C(=O)Nc1ccc(F)cc1)c1ccccc1 (stereo partly drawn) [TDH-175, (R)-2-((4-fluorophenyl)amino)-2-oxo-1-phenylethyl 3-amino-6-(1-(1-(1-((3-(2,6-dioxopiperidin-3-yl)-4-oxo-3,4-dihydrobenzo[d][1,2,3]triazin-6-yl)amino)-2-oxo-6,9,12-trioxa-3-azatetradecan-14-yl)piperidin-4-yl)-1H-pyrazol-4-yl)pyrazine-2-carboxylate]	18.82%	35.89%	48.93%	43.56%	7.3 nM		
